{"source": "patent US20250381121A1", "about": "“COMPOSITION FOR PERSONAL CARE PRODUCTS” (VAGINAL BIOME SCIENCE, INC., priority 2024, published 2025)", "key": {"Lactobacillus crispatus": {"test_system": "Lactobacillus crispatus", "assay": "Growth of Lactobacillus crispatus with UV-irradiated acemannan over 24 hours", "type": "cell-based", "procedure": "Growth media contained Dextrose-Free Sharpe (MRS) broth and Lactobacilli MRS Agar or an equivalent. Extract of irradiated aloe vera was further added to the MRS broth at 0.1 and 0.3% (w/v). A predetermined number of bacteria was added to each of the prepared medium and cultured at 37° C. under a suitable condition for the organism to be tested (anaerobic conditions for L. crispatus and L. gasseri). A small portion of the culture was removed at 2, 4, 6, 8, 12, 14, 16, 18, and 24 hours of culture. At each time point, collected samples containing the growing organisms are plated to quantify the live cell number.\nThe cell growth of Lactobacillus crispatus and Lactobacillus gasseri was determined by serial dilutions and plating to determine the bacterial counts at designated time points during the 24-h study period. Plates were cultured at 37° C. under a suitable condition for the organism to be tested (anaerobic conditions for L. crispatus and L. gasseri). Bacterial colonies were quantified at 0 and 16 hours after incubation.\nThe experiments were carried out using the method described above for EXAMPLE 4. Lactobacillus crispatus was cultured in the presence of varying concentrations (0.1%, 0.2%, 0.3%, 0.5%) of UV-irradiated acemannan or a negative control over a 24-hour period. Bacterial growth was quantified at 10 time points (0-24 hours) using log-scaled CFU/mL equivalents."}, "[1]": {"test_system": "herpes simplex virus (HSV-2)", "conditions": "cited from earlier work"}}, "note": "Read-outs that look alike come from different tables or passages of the source.", "data": [{"compound": "acemannan", "values": [{"measurement": "enhancement of L. crispatus growth compared with negative control", "setting": "Lactobacillus crispatus; 0.3% acemannan, at 10 hours (p<0.05)", "result": "significant enhancement of growth"}, {"measurement": "stimulation of L. crispatus growth over negative control", "setting": "Lactobacillus crispatus; 0.5% acemannan, significant at 6, 8, 10 and 18 hours (p<0.05)", "result": "most robust and consistent stimulation"}]}, {"compound": "CCCCCCCCCCCC(=O)OCC(O)CO", "note": "(stereo not drawn) [glycerol monolaurate (GML), glycerol monolaurate]", "values": [{"measurement": "susceptibility to herpes simplex virus (HSV-2)", "setting": "[1]; 5% as a colloidal suspension in phosphate buffered saline, single exposure", "result": "markedly increased"}, {"measurement": "susceptibility to herpes simplex virus (HSV-2)", "setting": "[1]; 5% formulated in K-Y Warming Jelly, single exposure", "result": "markedly increased"}]}, {"compound": "polyethylene glycol [polyethylene glycol (PEG-8)]", "values": [{"measurement": "susceptibility to herpes simplex virus (HSV-2)", "setting": "[1]; in vivo", "result": "markedly increased"}]}, {"compound": "CC(O)CO", "note": "(stereo not drawn) [propylene glycol]", "values": [{"measurement": "susceptibility to herpes simplex virus (HSV-2)", "setting": "[1]; in vivo", "result": "markedly increased"}]}]}
